In the NIST ThermoML archive (doi:10.1021/je060339m):
Numbers after ± are expanded uncertainties.

Settings: Liquid

CCCCCOC(C)=O [pentyl ethanoate]
mass density [kg/m3]
Settings	298.15 K	303.15 K	308.15 K	313.15 K	318.15 K	323.15 K	328.15 K	333.15 K	338.15 K	343.15 K
100 kPa	871.4 ± 3.3	866.5 ± 3.3	861.6 ± 3.3	856.7 ± 3.3	851.9 ± 3.3	847.1 ± 3.3	842.3 ± 3.3	837.8 ± 3.3	832.9 ± 3.3	828.3 ± 3.3
1000 kPa	871.9 ± 3.4	867.1 ± 3.4	862.2 ± 3.4	857.4 ± 3.4	852.6 ± 3.4	847.7 ± 3.4	843.2 ± 3.4	838.7 ± 3.4	834 ± 3.4	829.3 ± 3.4
2000 kPa	872.7 ± 3.6	867.9 ± 3.6	863.1 ± 3.6	858.3 ± 3.5	853.5 ± 3.5	848.7 ± 3.5	844.4 ± 3.5	839.8 ± 3.5	835.1 ± 3.5	830.4 ± 3.5
2700 kPa	873.3 ± 3.6	868.5 ± 3.6	863.7 ± 3.6	858.9 ± 3.6	854.2 ± 3.6	849.3 ± 3.6	845.2 ± 3.6	840.5 ± 3.6	835.8 ± 3.6	831.2 ± 3.6
3000 kPa	873.5 ± 3.7	868.7 ± 3.7	863.9 ± 3.7	859.2 ± 3.7	854.4 ± 3.7	849.6 ± 3.7	845.5 ± 3.7	840.8 ± 3.7	836.1 ± 3.7	831.5 ± 3.7
5000 kPa	875.3 ± 3.9	870.5 ± 3.9	865.8 ± 3.9	861 ± 3.9	856.4 ± 3.9	851.7 ± 3.9	847.1 ± 3.9	842.7 ± 3.9	838.1 ± 3.9	833.5 ± 3.9
10000 kPa	879.1 ± 4.5	874.4 ± 4.5	869.8 ± 4.5	865.2 ± 4.5	860.7 ± 4.5	856.1 ± 4.5	851.6 ± 4.5	847.4 ± 4.5	842.9 ± 4.5	838.5 ± 4.5
15000 kPa	882.7 ± 5.1	878.1 ± 5.1	873.6 ± 5.1	869 ± 5.1	864.7 ± 5.1	860.2 ± 5.1	855.9 ± 5.1	851.8 ± 5.1	847.5 ± 5.1	843.2 ± 5.1
20000 kPa	886.2 ± 5.7	881.6 ± 5.7	877.3 ± 5.7	872.8 ± 5.7	868.5 ± 5.7	864.2 ± 5.7	860 ± 5.7	856 ± 5.7	851.9 ± 5.7	847.7 ± 5.7
25000 kPa	889.6 ± 6.3	885.1 ± 6.3	880.8 ± 6.3	876.4 ± 6.3	872.3 ± 6.3	868.1 ± 6.3	864.1 ± 6.3	860.1 ± 6.3	856.2 ± 6.3	–
30000 kPa	893.6 ± 6.9	889.4 ± 6.9	885.2 ± 6.9	880.9 ± 6.9	876.9 ± 6.9	872.8 ± 6.9	869 ± 6.9	865.1 ± 6.9	861.3 ± 6.9	–
35000 kPa	897.9 ± 7.5	893.8 ± 7.5	889.7 ± 7.5	885.5 ± 7.5	881.7 ± 7.5	877.6 ± 7.5	874 ± 7.5	870.2 ± 7.5	866.5 ± 7.5	–
